Common to all, as to type: cell-based
In one assay the target is T1, D1 receptor (DRD1) (Homo sapiens, UniProt P21728).
T1 construct: expressed in transfected cells
Description: GPCR selectivity cellular assay. As to conditions: Antagonism; read-out: Antagonist Activity (IC50). The procedure: (§1) tagonists, with little activity detected on other GPCRs. Antagonist and/or agonist activities of the two compounds were determined in cellular assays for 20 human G-protein coupled receptors (GPCR) beside MRGPRX2. Recombinant over-expression systems in mammalian cells were used for all assays listed in this table. […]
(§2) reported as ‘>’ the highest compound concentration allowed in that assay.
(§3) GPCR Target Name Gene symbol Mode of Activity Compound-A Compound-B […]
(§4) Agonist Activity (EC50 ) or Antagonist Activity (IC50 ), nM […]

Another assay deals with NK1 receptor (TACR1) (Homo sapiens, UniProt P25103). The assay is described as follows: GPCR selectivity cellular assay. As to conditions: Antagonism; read-out: Antagonist Activity (IC50). The method, then:
as §1, §2, §3, §4

The next assay has as its target 5-HT2B receptor (HTR2B) (Homo sapiens, UniProt P41595). Description: GPCR selectivity cellular assay. As to conditions: Agonism; read-out: Agonist Activity (EC50). The method, then:
as §1, §2, §3, §4

A further assay deals with T2, 5-HT2C receptor (HTR2C) (Homo sapiens, UniProt P28335).
T2 sequence (P28335 33-458): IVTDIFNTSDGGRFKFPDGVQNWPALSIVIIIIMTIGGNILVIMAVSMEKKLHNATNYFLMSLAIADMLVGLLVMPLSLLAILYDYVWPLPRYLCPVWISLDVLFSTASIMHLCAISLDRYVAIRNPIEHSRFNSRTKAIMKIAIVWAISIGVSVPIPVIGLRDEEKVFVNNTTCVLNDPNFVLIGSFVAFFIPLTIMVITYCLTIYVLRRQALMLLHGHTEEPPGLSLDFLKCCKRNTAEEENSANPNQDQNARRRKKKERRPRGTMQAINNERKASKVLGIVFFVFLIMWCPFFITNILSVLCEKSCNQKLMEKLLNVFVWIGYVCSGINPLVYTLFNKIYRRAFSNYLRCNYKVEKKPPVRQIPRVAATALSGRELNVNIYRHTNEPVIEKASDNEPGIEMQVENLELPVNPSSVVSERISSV
Description: GPCR selectivity cellular assay. As to conditions: for EC50: Agonism, read-out: Agonist Activity (EC50); for IC50: Antagonism, read-out: Antagonist Activity (IC50). The procedure: as §1, §2, §3, §4

The next assay deals with k-Receptor (OPRK1) (Homo sapiens, UniProt P41145). Description: GPCR selectivity cellular assay. The method, then:
as §1, §2, §3, §4

For the next assay, the target named is T3, M2 receptor (CHRM2) (Homo sapiens, UniProt P08172).
T3 construct: expressed in transfected cells
T3 sequence (P08172 1-466): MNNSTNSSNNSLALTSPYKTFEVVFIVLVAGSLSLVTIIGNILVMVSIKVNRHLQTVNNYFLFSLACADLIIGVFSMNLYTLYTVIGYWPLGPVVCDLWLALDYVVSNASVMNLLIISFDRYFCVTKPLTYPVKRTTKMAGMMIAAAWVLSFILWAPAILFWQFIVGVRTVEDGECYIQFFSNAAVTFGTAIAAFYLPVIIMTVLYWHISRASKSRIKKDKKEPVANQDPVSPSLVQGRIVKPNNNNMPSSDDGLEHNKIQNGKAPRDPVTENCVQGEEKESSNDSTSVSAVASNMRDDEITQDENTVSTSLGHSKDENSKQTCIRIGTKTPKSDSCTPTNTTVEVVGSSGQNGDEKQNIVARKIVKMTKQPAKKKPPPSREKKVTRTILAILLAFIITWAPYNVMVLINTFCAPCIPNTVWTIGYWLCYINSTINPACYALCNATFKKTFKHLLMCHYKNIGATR
The assay is described as follows: GPCR selectivity cellular assay. The following applies: for EC50: Agonism, read-out: Agonist Activity (EC50); for IC50: Antagonism, read-out: Antagonist Activity (IC50). The method, then:
as §1, §2, §3, §4

For assay [1], the target named is T4, a1B-Adrenoreceptor (ADRA1B) (Homo sapiens, UniProt P35368).
T4 construct: expressed in transfected cells
Description: GPCR selectivity cellular assay. As to conditions: Antagonism; read-out: Antagonist Activity (IC50). The method, then: as §1, §2, §3, §4

The next assay addresses T5, M1 receptor (CHRM1) (Homo sapiens, UniProt P11229).
T5 construct: expressed in transfected cells
T5 sequence (P11229 1-460): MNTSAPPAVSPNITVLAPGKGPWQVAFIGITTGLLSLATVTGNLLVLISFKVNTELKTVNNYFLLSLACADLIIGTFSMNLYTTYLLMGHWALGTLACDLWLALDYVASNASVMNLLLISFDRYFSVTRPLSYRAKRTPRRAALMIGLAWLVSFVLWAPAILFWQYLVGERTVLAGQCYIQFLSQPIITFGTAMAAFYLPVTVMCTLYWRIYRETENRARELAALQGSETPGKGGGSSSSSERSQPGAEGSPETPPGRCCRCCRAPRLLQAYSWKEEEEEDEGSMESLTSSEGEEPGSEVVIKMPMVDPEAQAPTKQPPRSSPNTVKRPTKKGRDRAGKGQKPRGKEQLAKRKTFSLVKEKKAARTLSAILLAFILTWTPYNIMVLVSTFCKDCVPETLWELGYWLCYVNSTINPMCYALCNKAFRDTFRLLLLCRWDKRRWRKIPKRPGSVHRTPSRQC
Description: GPCR selectivity cellular assay. The following applies: for EC50: Agonism, read-out: Agonist Activity (EC50); for IC50: Antagonism, read-out: Antagonist Activity (IC50). The procedure: as §1, §2, §3, §4

In the next assay the target is T6, 5-HT1B receptor (HTR1B) (Homo sapiens, UniProt P28222).
T6 construct: expressed in transfected cells
Description: GPCR selectivity cellular assay. As to conditions: Agonism; read-out: Agonist Activity (EC50). The procedure: as §1, §2, §3, §4

A further assay addresses T7, V1A receptor (AVPR1A) (Homo sapiens, UniProt P37288).
T7 construct: expressed in transfected cells
The assay is described as follows: GPCR selectivity cellular assay. As to conditions: Antagonism; read-out: Antagonist Activity (IC50). The method, then:
as §1, §2, §3, §4

For a further assay, the system named is rat MrgB3. Description: Calcium mobilization in BacMam-transduced U2OS cells. The procedure:
(§5) Cell culture reagents were purchased from Thermo Fisher Scientific unless otherwise stated. The LAD2 human mast cell line was in-licensed from National Institutes of Health (NIH) and routinely cultured in StemPro™-34 SFM with nutrient supplement, 1× GlutaMax™, and recombinant human SCF (100 ng/mL). HEK293-MRGPRX2/Gα15 cells were cultured in DMEM containing 10% FBS. The parental U2OS cells were culture in DMEM/F-12 containing 10% FBS. BacMam virus containing human MRGPRX2 gene or animal orthologs [mouse Mrgprb2 (Gene ID: 243979), rat Mrgprb3 (Gene ID: 691194), dog MRGPRX2 (Gene ID: 102125889), cynomolgus monkey MRGPRX2 (Gene ID: 692078), and rhesus monkey MRGPRX2] were used to transduce U2OS cells for transient expression.
(§6) Supplemental Table 1: Compound A and Compound B are human MRGPRX2 selective antagonists. Antagonist and agonist activities of the two compounds were determined in calcium mobilization assays for human MRGPRX2 and its animal orthologs from various species. The activities were measured in […] (Molecular Devices) instrument using U2OS cells transduced with BacMam virus for transient expression of the relevant receptors. Data are presented as mean ± SEM when applicable.
(§7) Compound A and Compound B up to the highest concentration (100 µM) tested. In the antagonist […]
(§8) Compound A and B, respectively. […]
(§9) Taking together, […]

For assay [2], the system named is dog MRGPRX2 (beagle & boxer). Described as above. The method, then: as §5, §6, §7, §8, §9
Another assay has as its target T8, mouse MrgB2 (Mus musculus, UniProt Q3KNA1).
T8 construct: expressed in transfected cells; host or cells: U2OS transduced with BacMam virus
The description is as above. The procedure: as §5, §6, §7, §8, §9

Where two headings read alike, the source gives them in different places.

T4 sequence (P35368 whole entry): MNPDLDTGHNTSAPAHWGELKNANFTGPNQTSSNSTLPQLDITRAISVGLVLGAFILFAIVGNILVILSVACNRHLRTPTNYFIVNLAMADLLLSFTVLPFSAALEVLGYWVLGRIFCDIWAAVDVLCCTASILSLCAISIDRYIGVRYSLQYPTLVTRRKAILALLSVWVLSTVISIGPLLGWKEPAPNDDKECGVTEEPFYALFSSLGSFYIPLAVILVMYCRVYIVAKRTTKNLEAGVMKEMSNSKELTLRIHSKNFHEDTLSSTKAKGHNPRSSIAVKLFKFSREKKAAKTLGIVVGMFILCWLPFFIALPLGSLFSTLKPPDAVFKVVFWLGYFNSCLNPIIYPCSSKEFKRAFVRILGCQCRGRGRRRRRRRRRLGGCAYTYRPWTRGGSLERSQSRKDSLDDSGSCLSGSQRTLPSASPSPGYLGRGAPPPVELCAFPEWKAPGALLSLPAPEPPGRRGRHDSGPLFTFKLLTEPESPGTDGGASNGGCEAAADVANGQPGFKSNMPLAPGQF
5-HT2B receptor (HTR2B), sequence (P41595 whole entry): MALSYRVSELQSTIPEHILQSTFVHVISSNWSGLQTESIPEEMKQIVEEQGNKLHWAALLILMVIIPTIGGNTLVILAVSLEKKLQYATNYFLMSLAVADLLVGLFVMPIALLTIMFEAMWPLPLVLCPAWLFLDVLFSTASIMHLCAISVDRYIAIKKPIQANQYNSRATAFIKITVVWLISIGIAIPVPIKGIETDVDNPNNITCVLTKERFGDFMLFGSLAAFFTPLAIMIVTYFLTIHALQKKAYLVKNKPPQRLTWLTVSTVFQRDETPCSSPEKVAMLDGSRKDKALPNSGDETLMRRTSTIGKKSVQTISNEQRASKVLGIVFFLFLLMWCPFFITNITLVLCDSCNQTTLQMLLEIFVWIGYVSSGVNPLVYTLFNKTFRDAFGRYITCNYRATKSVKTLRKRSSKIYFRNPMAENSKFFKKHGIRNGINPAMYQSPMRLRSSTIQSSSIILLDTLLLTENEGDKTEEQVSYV
T7 sequence (P37288 whole entry): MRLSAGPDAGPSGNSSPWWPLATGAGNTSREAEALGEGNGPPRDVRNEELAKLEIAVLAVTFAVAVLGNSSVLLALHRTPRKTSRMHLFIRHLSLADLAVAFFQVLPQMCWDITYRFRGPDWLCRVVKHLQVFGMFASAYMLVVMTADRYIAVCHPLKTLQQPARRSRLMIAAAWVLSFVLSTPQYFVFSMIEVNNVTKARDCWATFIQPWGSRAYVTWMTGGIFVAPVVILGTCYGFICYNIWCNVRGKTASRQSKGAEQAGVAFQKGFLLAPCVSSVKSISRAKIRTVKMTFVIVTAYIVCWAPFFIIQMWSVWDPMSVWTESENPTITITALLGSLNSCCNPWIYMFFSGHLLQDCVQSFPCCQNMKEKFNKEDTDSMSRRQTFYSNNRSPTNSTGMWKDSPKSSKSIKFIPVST
T6 sequence (P28222 whole entry): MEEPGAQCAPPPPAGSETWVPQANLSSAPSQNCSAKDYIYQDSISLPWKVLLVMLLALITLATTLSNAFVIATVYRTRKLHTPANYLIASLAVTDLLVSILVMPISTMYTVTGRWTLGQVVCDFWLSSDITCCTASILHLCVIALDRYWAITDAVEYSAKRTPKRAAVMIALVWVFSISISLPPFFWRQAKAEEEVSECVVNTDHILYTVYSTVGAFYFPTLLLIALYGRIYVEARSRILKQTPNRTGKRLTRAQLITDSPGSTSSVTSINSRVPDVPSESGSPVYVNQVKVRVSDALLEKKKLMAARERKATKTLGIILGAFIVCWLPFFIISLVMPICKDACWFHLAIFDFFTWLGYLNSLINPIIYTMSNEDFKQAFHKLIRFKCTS
NK1 receptor (TACR1), sequence (P25103 whole entry): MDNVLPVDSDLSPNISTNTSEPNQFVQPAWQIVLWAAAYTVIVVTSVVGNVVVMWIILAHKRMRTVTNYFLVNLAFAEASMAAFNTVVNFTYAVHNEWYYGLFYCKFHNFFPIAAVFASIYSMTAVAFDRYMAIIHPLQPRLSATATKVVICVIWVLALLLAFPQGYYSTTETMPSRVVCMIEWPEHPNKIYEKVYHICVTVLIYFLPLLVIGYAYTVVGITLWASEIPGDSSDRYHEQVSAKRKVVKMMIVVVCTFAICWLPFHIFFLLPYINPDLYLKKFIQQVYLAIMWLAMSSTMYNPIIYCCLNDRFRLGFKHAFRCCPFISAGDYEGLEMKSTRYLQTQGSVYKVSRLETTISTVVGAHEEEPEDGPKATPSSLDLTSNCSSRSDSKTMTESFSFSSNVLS
T8 sequence (Q3KNA1 whole entry): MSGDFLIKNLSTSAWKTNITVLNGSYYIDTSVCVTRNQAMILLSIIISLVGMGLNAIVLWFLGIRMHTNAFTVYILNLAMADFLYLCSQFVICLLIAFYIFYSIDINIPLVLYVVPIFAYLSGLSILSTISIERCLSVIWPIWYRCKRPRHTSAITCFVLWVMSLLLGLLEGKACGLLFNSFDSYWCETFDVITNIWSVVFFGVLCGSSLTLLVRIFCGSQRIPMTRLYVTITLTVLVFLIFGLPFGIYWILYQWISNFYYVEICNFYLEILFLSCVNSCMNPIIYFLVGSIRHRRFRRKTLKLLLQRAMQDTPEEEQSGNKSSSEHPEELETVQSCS
k-Receptor (OPRK1), sequence (P41145 whole entry): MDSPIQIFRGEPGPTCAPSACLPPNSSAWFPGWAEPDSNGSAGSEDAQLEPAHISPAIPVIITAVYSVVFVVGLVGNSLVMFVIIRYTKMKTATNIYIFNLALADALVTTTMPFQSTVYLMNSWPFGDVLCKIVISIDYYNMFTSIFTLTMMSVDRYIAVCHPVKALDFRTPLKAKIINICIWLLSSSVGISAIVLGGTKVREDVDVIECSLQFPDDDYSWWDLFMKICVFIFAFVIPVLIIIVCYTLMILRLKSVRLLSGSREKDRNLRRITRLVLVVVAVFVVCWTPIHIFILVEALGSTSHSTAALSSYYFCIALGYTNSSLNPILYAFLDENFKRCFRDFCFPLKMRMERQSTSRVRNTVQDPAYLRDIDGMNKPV
T1 sequence (P21728 whole entry): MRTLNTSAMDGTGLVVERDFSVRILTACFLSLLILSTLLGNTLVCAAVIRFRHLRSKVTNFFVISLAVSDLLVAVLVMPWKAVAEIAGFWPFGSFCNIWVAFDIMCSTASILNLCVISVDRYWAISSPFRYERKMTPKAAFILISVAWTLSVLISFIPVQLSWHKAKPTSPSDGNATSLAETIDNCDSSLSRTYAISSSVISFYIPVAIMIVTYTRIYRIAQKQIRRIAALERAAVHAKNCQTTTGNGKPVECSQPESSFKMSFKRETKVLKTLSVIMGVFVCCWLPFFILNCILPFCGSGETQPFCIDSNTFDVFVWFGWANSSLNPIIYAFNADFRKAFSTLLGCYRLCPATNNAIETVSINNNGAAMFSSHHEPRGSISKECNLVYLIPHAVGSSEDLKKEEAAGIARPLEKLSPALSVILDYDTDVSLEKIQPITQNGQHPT

For orientation: IC50 means the concentration that gives 50% inhibition. In general, EC50 refers to the concentration at which the effect is half-maximal. As to `CC1(C)C(C(=O)Nc2ccccn2)C1(C)C` [Compound A], the IC50 at D1 receptor (DRD1) is more than 100 µM; at NK1 receptor (TACR1), more than 25 µM; at 5-HT2C receptor (HTR2C), more than 100 µM; on M2 receptor (CHRM2), more than 50 µM; in [1] it was more than 25 µM; on M1 receptor (CHRM1) it was more than 50 µM. The IC50 on V1A receptor (AVPR1A) is more than 50 µM. The concentration for a half-maximal effect (EC50) on 5-HT2B receptor (HTR2B) is 27.1 µM; at 5-HT2C receptor (HTR2C) it was more than 100 µM; on k-Receptor (OPRK1), more than 100 µM; at M2 receptor (CHRM2) it was more than 50 µM; at M1 receptor (CHRM1), more than 50 µM; on 5-HT1B receptor (HTR1B), 11.9 µM. In addition, the “Agonist and antagonist activity” value (in the assay on rat MrgB3; in [2]; on mouse MrgB2) was “No agonist nor antagonist activity” throughout.

Regarding `C[C@@H](C(=O)Nc1cnc(Oc2ccc(F)cc2F)cn1)N1CCC(F)(F)[C@@H](c2cc[n+]([O-])cc2)C1` [Compound B], the IC50 on D1 receptor (DRD1) was more than 100 µM; at NK1 receptor (TACR1), more than 25 µM; on 5-HT2C receptor (HTR2C), more than 50 µM; at M2 receptor (CHRM2) it was more than 50 µM; in [1], more than 25 µM; at M1 receptor (CHRM1), more than 50 µM. Further, the IC50 at V1A receptor (AVPR1A) is more than 50 µM. The EC50 on 5-HT2B receptor (HTR2B) was more than 100 µM; on 5-HT2C receptor (HTR2C), more than 100 µM; on k-Receptor (OPRK1) (Agonism, read-out: Agonist Activity (EC50)) it was more than 100 µM; at M2 receptor (CHRM2), more than 50 µM; on M1 receptor (CHRM1), more than 50 µM; at 5-HT1B receptor (HTR1B), more than 50 µM. For the same compound, the “Agonist and antagonist activity” value (in the assay on rat MrgB3; in [2]; on mouse MrgB2) was “No agonist nor antagonist activity” throughout.

Values taken from PMC11527646, “Pharmacological blockade of the mast cell MRGPRX2 receptor supports investigation of its relevance in skin disorders” (Frontiers in Immunology, 2024).
